# What was measured:
# Mice = test: Maximum tolerated dose (MTD) for 14 days; type: in vivo; conditions: for MTD (mg/kg, po): Mice, 14 days
# Text: Maximum Tolerated Dose—Non-Toxic Nature
# [1] = Stability under high humidity conditions (water content by Karl-Fischer method); type: physicochemical; conditions: for Final moisture content - After 48 hours at 25° C. at humidity of 60%: humidity 60%; for Final moisture content - After 48 hours at 25° C. at humidity of 60% / Final moisture content - After 48 hours at 40° C. at humidity of 75% / Initial moisture content (%): Karl-Fischer; for Final moisture content - After 48 hours at 40° C. at humidity of 75%: humidity 75%; for Initial moisture content (%): before storage; for Hygroscopicity (conclusion in words): conclusion from Table 1
# [2] = tested on: K562 cell line, chronic myelogenous leukemia (CML); test: Activity in cell culture, K562 cell proliferation; type: cell-based; conditions: for Potency in inhibiting cell proliferation compared with Imatinib: K562; for IC50: K562, 0.312×10^5 cells/ml, 72 Hrs, 10 μM to 0.156 μM
# [3] = Flow properties, angle of repose; type: physicochemical
# [4] = tested on: T315I cell line, chronic myelogenous leukemia (CML) mutant; test: Activity in cell culture, T315I cell proliferation; type: cell-based; conditions: for IC50: 0.625×10^5 cells/ml, 10 μM to 0.156 μM
# [5] = Solubility by the shake flask method; conditions: for Solubility (mg/ml): Medium: Water
# Method: General conditions: Room temperature (25° C.), stirring speed: 200 RPM, Analytical method: UV
# [6] = Bioavailability study in mice; type: in vivo
# [7] = 0.1N HCl, 25 °C, simulated gastric fluid, thermodynamic from solid
structure (smiles),measurement,setting,value
"Cc1ccc(NC(=O)c2cc(C(F)(F)F)cc(C(F)(F)F)c2)cc1Nc1nccc(-c2cccnc2)n1.Cc1ccc(S(=O)(=O)O)cc1 [AN-019T, (3,5-Bis trifluoromethyl)-N-[4-methyl-3-(4-pyridin-3-yl-pyrimidin-2-ylamino)-phenyl]-benzamide 4-toluene sulfonate monohydrate]","MTD (mg/kg, po)",Mice,"1000.0 mg/kg, po"
same,Toxicity compared with the base,"Mice; conclusion from Table 3, mice",substantially less toxic than the corresponding base
same,Final moisture content - After 48 hours at 25° C. at humidity of 60%,[1],2.7%
same,Final moisture content - After 48 hours at 40° C. at humidity of 75%,[1],2.8%
same,Initial moisture content (%),[1],2.7%
same,Hygroscopicity (conclusion in words),[1],non-hygroscopic
same,Potency in inhibiting cell proliferation compared with Imatinib,[2],more potent than Imatinib
same,IC50,[2]; monohydrate,265 nM
same,Angle of Repose (degrees °),[3],30.74 degrees °
same,Flow properties compared with the base,[3]; conclusion from Table 4,a lower angle of repose and better flow properties when compared with corresponding base
same,Potency in inhibiting cell proliferation compared with Imatinib,[4],more potent than Imatinib
same,IC50,"[4]; 72 Hrs, monohydrate",109 nM
same,solubility,[5]; [7],40.2 µg/mL
same,Solubility compared with the other salts,[5]; conclusion from Table 2,improved solubility properties among other salts investigated
same,solubility,"[5]; water, 25 °C, thermodynamic from solid",7.8 µg/mL
"Cc1ccc(NC(=O)c2cc(C(F)(F)F)cc(C(F)(F)F)c2)cc1Nc1nccc(-c2cccnc2)n1 [AN-019, (3,5-Bistrifluoromethyl)-N-[4-methyl-3-(4-pyridin-3-yl-pyrimidin-2-ylamino)-phenyl]-benzamide]","MTD (mg/kg, po)",Mice,"500.0 mg/kg, po"
same,IC50,"[2]; Homo sapiens, K562, 72 h",206 nM
same,Potency in inhibiting cell proliferation compared with Imatinib,[2],more potent than Imatinib
same,AUC,[6],611.46 ng·h/mL
same,Cmax,"[6]; mouse, in vivo",93.7 ng/mL
same,Tmax,"[6]; mouse, in vivo",6 h
same,Angle of Repose (degrees °),[3],41.57 degrees °
same,Potency in inhibiting cell proliferation compared with Imatinib,[4],more potent than Imatinib
same,IC50,[4]; 72 h,99.3 nM
same,solubility,[5]; [7],1.3 µg/mL
same,Solubility (mg/ml),"[5]; 25° C., 200 RPM, UV",Almost no
"Cc1ccc(NC(=O)c2cc(C(F)(F)F)cc(C(F)(F)F)c2)cc1Nc1nccc(-c2cccnc2)n1.Cl [(3,5-Bis trifluoromethyl)-N-[4-methyl-3-(4-pyridin-3-yl-pyrimidin-2-ylamino)-phenyl]-benzamide hydrochloride]",Final moisture content - After 48 hours at 25° C. at humidity of 60%,[1],0.7%
same,Final moisture content - After 48 hours at 40° C. at humidity of 75%,[1],0.7%
same,Initial moisture content (%),[1],0.6%
same,Hygroscopicity (conclusion in words),[1],non-hygroscopic
same,solubility,"[5]; Medium: 0.1N HCl, 25° C., 200 RPM, UV",13.4 µg/mL
same,Solubility (mg/ml),"[5]; 25° C., 200 RPM, UV",Almost no
"CS(=O)(=O)O.Cc1ccc(NC(=O)c2cc(C(F)(F)F)cc(C(F)(F)F)c2)cc1Nc1nccc(-c2cccnc2)n1 [(3,5-Bis trifluoromethyl)-N-[4-methyl-3-(4-pyridin-3-yl-pyrimidin-2-ylamino)-phenyl]-benzamide methane sulfonate]",Final moisture content - After 48 hours at 25° C. at humidity of 60%,[1],0.7%
same,Final moisture content - After 48 hours at 40° C. at humidity of 75%,[1],0.7%
same,Initial moisture content (%),[1],0.6%
same,Hygroscopicity (conclusion in words),[1],non-hygroscopic

# Source: patent US8735415B2, “Acid addition salts of (3,5-Bis trifluoromethyl)-N-[4-methyl-3-(4-pyridin-3yl-pyrimidin-2ylamino)-phenyl]-benzamide” (Natco Pharma Limited, priority 2004, dated 2014)
